This assay deals with mouse ES cells. The assay is described as follows: In vitro hepatic differentiation of ES cells (EBs): marker mRNA expression by RT-PCR / real-time PCR. The settings on record: EBs on collagen coated dishes, factors of individual stages, Day 18. The format is cell-based. How it is done: Cell Culture—The ES cell lines R1 (129Sv strain), W9.5 (129Sv), and SEK1 null (established from W9.5) (Ganiatsas et al., (1998) Proc. Natl. Acad. Sci. USA 95, 6881-6) were maintained undifferentiated in gelatin-coated dishes in DMEM (GIBCO BRL, Grand Island, N.Y.) containing 15% fetal bovine serum (Atlanta biologicals, Norcross, Ga.), 2 mM L-glutamine, 100 units/ml penicilin, 100 μg/ml streptomycin, 25 mM Hepes (GIBCO BRL), 300 μM monothioglycerol (Sigma, St. Louis, Mo.), and 250 unit/ml recombinant mouse LIF (ESGRO, CHEMICON, Temecula, Calif.). To induce differentiation, ES cells were suspended in IMDM containing 2 mM L-glutamine, 100 units/ml penicillin, 100 μg/ml streptomycin (GIBCO BRL), 20% fetal bovine serum (Atlanta biologicals) and 300 μM monothioglycerol (Sigma). Cells were cultured for 2 days by the hanging-drop method (1×10^3 ES cells per 30 μl in each drop) (Metzger et al., (1994) J. Cell. Biol. 126, 701-11). EBs in hanging drops were transferred to suspension culture in 100-mm petri dishes and cultured for an additional 3 days. […]
For each gene, the DNA primers were originated from different exons to ensure that the PCR product represented the specific mRNA species and not genomic DNA. Relative quantitation of albumin gene was performed by ABIPRISM5700 sequence detection system and SYBR green PCR master mix (PE Biosystems, Foster City, Calif.). […]
(Real-time PCR tracks product formation cycle by cycle.)

Turning to hepatocyte growth factor [HGF], the “G6P expression (FIG. 5a)” value is reported as “critical”.

The record behind these values is patent US20020115059A1, “Drug screening system” (priority 2000, published 2002).
